Measured values: ChEMBL document CHEMBL3045246, “Investigation on the substitution effects of the flavonoids as potent anticancer agents: a structureactivity relationships study” (Med Chem Res, 2012)

Assays:
[1] = system: HepG2; experiment: Cytotoxicity against Homo sapiens (human) HepG2 cells after 48 hr by MTT reduction assay; format: functional, cell-based; details: HepG2, 48 h
[2] = system: SMMC-7721; experiment: Cytotoxicity against Homo sapiens (human) SMMC7721 cells after 48 hr by MTT reduction assay; format: functional, cell-based; details: SMMC-7721, 48 h
[3] = target: Cyclin-dependent kinase 1/cyclin B1 (Homo sapiens, UniProt P06493); experiment: Inhibition of CDK1/Cyclin B (unknown origin) by Z-LYTE assay; format: protein-complex assay
Chain of Cyclin-dependent kinase 1/cyclin B1 (P06493 whole entry): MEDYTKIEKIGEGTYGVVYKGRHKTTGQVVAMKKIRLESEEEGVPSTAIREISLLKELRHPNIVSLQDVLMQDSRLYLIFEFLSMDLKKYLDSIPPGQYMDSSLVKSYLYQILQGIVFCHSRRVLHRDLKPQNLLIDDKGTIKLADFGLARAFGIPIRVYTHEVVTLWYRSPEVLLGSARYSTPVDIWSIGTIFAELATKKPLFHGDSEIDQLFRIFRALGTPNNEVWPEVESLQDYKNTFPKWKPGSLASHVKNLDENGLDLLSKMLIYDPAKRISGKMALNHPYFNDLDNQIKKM
Chain of Cyclin-dependent kinase 1/cyclin B1 (P14635 whole entry, further chain): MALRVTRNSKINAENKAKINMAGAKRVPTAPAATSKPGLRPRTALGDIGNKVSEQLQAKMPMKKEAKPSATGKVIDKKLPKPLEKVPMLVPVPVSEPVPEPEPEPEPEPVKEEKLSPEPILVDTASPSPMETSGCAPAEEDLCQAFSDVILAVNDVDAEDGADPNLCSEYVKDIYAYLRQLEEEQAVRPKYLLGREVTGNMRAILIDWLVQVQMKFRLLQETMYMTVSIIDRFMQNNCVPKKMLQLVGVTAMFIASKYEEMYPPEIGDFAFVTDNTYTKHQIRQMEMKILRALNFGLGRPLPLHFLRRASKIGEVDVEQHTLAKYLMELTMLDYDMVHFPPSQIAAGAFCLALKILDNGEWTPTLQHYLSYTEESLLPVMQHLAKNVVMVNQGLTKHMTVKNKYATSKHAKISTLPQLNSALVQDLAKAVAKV

| IC50 [3] | Structure (SMILES) | IC50 [1] | IC50 [2] |
| --- | --- | --- | --- |
|  | Cc1ccc2oc(-c3ccc(N)cc3)cc(=O)c2c1 | 21.3 µM |  |
|  | CN1CCN(Cc2ccc3c(=O)cc(-c4ccccc4Cl)oc3c2)CC1 | 14.2 µM | 12.9 µM |
|  | O=c1cc(-c2ccccc2Cl)oc2cc(CN3CCNCC3)ccc12 | 2.58 µM | 1.91 µM |
|  | CN(C)Cc1ccc2c(=O)cc(-c3ccccc3Cl)oc2c1 |  | 28.2 µM |
|  | O=c1cc(-c2ccc(Cl)cc2)oc2ccc(CN3CCCCC3)cc12 | 14 µM | 16.2 µM |
|  | O=c1cc(-c2ccc(Cl)cc2)oc2ccc(CN3CCNCC3)cc12 | 2.69 µM | 1.51 µM |
|  | CC[N+](CC)(CC)Cc1ccc2oc(-c3ccccc3Cl)cc(=O)c2c1 | 61 µM |  |
|  | Nc1ccc(-c2cc(=O)c3cc(CN4CCCCC4)ccc3o2)cc1 | 2.64 µM | 3.68 µM |
|  | Cc1ccc2c(=O)cc(-c3ccc(Cl)cc3)oc2c1 | 6.83 µM |  |
|  | Cc1ccc2c(=O)cc(-c3ccccc3Cl)oc2c1 | 28.3 µM |  |
|  | Cc1ccc2c(=O)cc(-c3ccc(N)cc3)oc2c1 | 40.5 µM |  |
|  | CN1CCN(Cc2ccc3c(=O)cc(-c4ccc([N+](=O)[O-])cc4)oc3c2)CC1 |  | 10.7 µM |
| 4.84 µM | O=c1cc(-c2ccc([N+](=O)[O-])cc2)oc2c(CN3CCNCC3)cc(Cl)cc12 | 0.243 µM | 1.1 µM |
|  | CN(C)Cc1cc(Cl)cc2c(=O)cc(-c3ccc([N+](=O)[O-])cc3)oc12 | 6.19 µM | 56.5 µM |
| 2.14 µM | O=c1cc(-c2ccc([N+](=O)[O-])cc2)oc2c(Cn3ccnc3)cc(Cl)cc12 | 2.94 µM | 1.2 µM |
| 2.06 µM | CCN(CC)Cc1cc(Cl)cc2c(=O)cc(-c3ccccc3Cl)oc12 | 7.94 µM | 0.81 µM |
|  | O=c1cc(-c2ccccc2Cl)oc2c(CN3CCCCC3)cc(Cl)cc12 | 10.7 µM | 3.4 µM |

| IC50 [3] | Structure (SMILES) | IC50 [1] | IC50 [2] |
| --- | --- | --- | --- |
|  | CN1CCN(Cc2cc(Cl)cc3c(=O)cc(-c4ccccc4Cl)oc23)CC1 |  | 3.1 µM |
|  | O=c1cc(-c2ccccc2Cl)oc2c(CN3CCOCC3)cc(Cl)cc12 | 6.81 µM | 13.2 µM |
|  | O=c1cc(-c2ccccc2Cl)oc2c(CN3CCNCC3)cc(Cl)cc12 | 18.7 µM | 2.69 µM |
|  | CN(C)Cc1cc(Cl)cc2c(=O)cc(-c3ccccc3Cl)oc12 | 1.87 µM | 1.14 µM |
|  | O=c1cc(-c2ccccc2Cl)oc2c(Cn3ccnc3)cc(Cl)cc12 | 3.27 µM | 1.07 µM |
| 2.17 µM | O=c1cc(-c2ccc(Cl)cc2)oc2c(CN3CCOCC3)cc(Cl)cc12 | 6.33 µM | 15.3 µM |
|  | Cc1ccc2oc(-c3ccccc3Cl)cc(=O)c2c1 | 6.23 µM | 15.1 µM |
|  | CN1CCN(Cc2ccc3oc(-c4ccc([N+](=O)[O-])cc4)cc(=O)c3c2)CC1 |  | 19 µM |
|  | Cc1cc(Cl)cc2c(=O)cc(-c3ccc(N)cc3)oc12 | 11.9 µM |  |
| 2.21 µM | CCN(CC)Cc1cccc2c(=O)cc(-c3ccc([N+](=O)[O-])cc3)oc12 | 28.8 µM |  |
| 8.13 µM | CN1CCN(Cc2cccc3c(=O)cc(-c4ccc([N+](=O)[O-])cc4)oc23)CC1 | 2.94 µM | 1.19 µM |
|  | CCN(CC)Cc1cc(Cl)cc2c(=O)cc(-c3ccc([N+](=O)[O-])cc3)oc12 | 1.19 µM | 2.99 µM |
|  | O=c1cc(-c2ccc([N+](=O)[O-])cc2)oc2c(CN3CCCCC3)cc(Cl)cc12 | 8.91 µM | 1.09 µM |
| 6.22 µM | CN1CCN(Cc2cc(Cl)cc3c(=O)cc(-c4ccc([N+](=O)[O-])cc4)oc23)CC1 | 1.76 µM | 5.21 µM |
|  | O=c1cc(-c2ccc([N+](=O)[O-])cc2)oc2cc(CN3CCNCC3)ccc12 | 4.53 µM | 2.03 µM |
|  | CCN(CC)Cc1ccc2c(=O)cc(-c3ccccc3Cl)oc2c1 | 10.7 µM |  |
|  | O=c1cc(-c2ccccc2Cl)oc2cc(CN3CCCCC3)ccc12 | 3.64 µM |  |
